What was measured:
[1] = DRUGMATRIX: Calcium Channel Type L, Benzothiazepine radioligand binding (ligand: [3H] Diltiazem); assay type: cell membranes, Rattus norvegicus, Wistar, Brain, Membrane; settings: Not Active = under 50% inhibition at 10 µM
[2] = DRUGMATRIX: Serotonin (5-Hydroxytryptamine) 5-HT3 radioligand binding (ligand: [3H] GR-65630); assay type: cell membranes, Membrane; settings: hek293; Not Active = under 50% inhibition at 10 µM
[3] = molecular target: T1, C-X-C chemokine receptor type 1 (Homo sapiens, UniProt P25024); also: in other assays of this panel Not Active means under 50% inhibition at 10 µM
T1 sequence (P25024 whole entry): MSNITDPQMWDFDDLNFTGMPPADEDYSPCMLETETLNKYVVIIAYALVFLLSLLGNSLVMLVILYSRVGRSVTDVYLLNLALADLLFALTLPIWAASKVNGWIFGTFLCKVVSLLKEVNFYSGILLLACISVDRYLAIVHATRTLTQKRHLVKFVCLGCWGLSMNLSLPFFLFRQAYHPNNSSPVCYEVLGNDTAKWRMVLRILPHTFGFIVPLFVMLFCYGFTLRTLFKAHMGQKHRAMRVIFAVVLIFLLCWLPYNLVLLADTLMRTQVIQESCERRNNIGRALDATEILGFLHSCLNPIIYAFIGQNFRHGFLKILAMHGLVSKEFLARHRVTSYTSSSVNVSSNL

[4] = molecular target: T2, Cholecystokinin receptor type A (Homo sapiens, UniProt P32238); assay type: cell membranes, Membrane; settings: 1321-n1; also: in other assays of this panel Not Active means under 50% inhibition at 10 µM
T2 sequence (P32238 whole entry): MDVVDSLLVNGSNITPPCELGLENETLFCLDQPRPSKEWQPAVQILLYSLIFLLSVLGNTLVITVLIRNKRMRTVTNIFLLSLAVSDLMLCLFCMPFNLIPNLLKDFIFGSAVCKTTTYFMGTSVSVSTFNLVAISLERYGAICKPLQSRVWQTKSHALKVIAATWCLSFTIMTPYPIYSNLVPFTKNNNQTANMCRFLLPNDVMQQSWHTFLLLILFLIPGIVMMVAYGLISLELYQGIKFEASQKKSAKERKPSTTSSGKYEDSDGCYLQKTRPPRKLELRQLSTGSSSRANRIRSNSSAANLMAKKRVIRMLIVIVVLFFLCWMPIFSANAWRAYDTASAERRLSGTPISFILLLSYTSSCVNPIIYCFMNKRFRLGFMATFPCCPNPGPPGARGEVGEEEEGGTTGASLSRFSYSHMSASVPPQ

[5] = DRUGMATRIX: Glutamate, NMDA, Agonism radioligand binding (ligand: [3H] CGP-39653); assay type: cell membranes, Rattus norvegicus, Wistar, Cerebral cortex, Membrane; settings: Not Active = under 50% inhibition at 10 µM
[6] = DRUGMATRIX: Imidazoline I2, Central radioligand binding (ligand: [3H] Idazoxan); assay type: cell membranes, Rattus norvegicus, Wistar, Cerebral cortex, Membrane; settings: Not Active = under 50% inhibition at 10 µM
[7] = DRUGMATRIX: Nicotinic Acetylcholine radioligand binding (ligand: [125I] Epibatidine); assay type: cell membranes, Membrane; settings: imr-32; Not Active = under 50% inhibition at 10 µM
[8] = DRUGMATRIX: Phorbol Ester radioligand binding (ligand: [3H] PDBu); assay type: cell membranes, Mus musculus, ICR, Brain, Membrane; settings: Not Active = under 50% inhibition at 10 µM
[9] = molecular target: Epidermal growth factor receptor (Homo sapiens, UniProt P00533); test: DRUGMATRIX: Protein Tyrosine Kinase, EGF Receptor enzyme inhibition (substrate: Poly(Glu:Tyr)); assay type: cell-based, Insect cells; settings: Not Active = under 50% inhibition at 10 µM
Cytochrome P450 1A2 = molecular target: T3, Cytochrome P450 1A2 (Homo sapiens, UniProt P05177); settings: bti-tn-5b1-4; also: in other assays of this panel Not Active means under 50% inhibition at 10 µM
T3 sequence (P05177 whole entry): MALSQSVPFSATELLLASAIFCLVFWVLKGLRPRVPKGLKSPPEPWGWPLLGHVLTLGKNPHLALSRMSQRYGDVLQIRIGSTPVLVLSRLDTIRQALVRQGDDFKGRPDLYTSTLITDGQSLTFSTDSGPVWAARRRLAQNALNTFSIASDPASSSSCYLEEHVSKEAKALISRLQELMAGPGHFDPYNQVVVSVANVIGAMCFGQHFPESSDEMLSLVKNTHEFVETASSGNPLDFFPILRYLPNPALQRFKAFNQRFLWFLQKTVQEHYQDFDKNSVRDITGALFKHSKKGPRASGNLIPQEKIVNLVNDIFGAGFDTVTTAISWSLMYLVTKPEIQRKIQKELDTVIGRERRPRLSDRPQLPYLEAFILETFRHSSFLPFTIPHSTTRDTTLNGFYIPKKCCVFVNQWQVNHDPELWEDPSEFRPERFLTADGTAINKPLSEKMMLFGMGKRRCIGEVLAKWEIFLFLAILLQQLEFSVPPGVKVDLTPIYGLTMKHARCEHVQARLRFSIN

Sequence of Epidermal growth factor receptor (P00533 whole entry): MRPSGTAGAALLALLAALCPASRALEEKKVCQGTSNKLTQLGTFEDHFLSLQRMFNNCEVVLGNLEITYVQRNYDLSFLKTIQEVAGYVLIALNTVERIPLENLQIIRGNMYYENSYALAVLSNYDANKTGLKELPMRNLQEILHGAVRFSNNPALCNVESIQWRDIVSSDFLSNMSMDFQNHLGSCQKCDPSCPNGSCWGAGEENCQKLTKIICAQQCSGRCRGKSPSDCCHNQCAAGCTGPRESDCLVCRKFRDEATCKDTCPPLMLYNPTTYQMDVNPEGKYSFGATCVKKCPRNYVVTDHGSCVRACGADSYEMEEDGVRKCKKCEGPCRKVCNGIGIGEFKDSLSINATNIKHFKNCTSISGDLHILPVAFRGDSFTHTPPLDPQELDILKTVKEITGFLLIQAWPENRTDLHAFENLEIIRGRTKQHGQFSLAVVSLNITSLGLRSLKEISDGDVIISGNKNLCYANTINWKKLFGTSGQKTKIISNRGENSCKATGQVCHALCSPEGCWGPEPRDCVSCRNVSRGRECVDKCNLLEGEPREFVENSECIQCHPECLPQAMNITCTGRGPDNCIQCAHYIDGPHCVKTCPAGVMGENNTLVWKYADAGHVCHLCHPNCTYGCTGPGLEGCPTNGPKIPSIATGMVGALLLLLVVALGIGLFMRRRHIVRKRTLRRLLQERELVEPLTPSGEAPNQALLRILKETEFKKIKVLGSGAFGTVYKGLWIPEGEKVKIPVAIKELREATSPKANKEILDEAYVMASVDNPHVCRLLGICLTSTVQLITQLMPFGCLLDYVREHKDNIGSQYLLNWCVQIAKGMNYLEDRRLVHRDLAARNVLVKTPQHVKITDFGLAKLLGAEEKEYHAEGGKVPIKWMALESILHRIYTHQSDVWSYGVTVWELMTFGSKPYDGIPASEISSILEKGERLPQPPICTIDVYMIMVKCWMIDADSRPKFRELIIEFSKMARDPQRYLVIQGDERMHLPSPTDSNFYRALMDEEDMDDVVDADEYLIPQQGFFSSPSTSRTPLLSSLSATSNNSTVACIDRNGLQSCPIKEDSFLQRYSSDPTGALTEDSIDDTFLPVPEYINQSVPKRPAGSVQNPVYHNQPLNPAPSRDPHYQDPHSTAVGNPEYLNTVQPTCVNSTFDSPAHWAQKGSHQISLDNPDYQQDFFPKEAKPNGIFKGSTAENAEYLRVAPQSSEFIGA

SMILES | IC50 [1] | Ki [1] | IC50 [2] | Ki [2] | IC50 [3] | IC50 [4] | IC50 [5] | Ki [5] | IC50 [6] | Ki [6] | IC50 [7] | Ki [7] | IC50 [8] | Ki [8] | IC50 ([9]; insect cells) | IC50 (Cytochrome P450 1A2) | Ki (Cytochrome P450 1A2) | IC50 ([1]; read-out: IC50) | Ki ([1]; read-out: Ki) | IC50 ([9]; read-out: IC50)
COCCCOc1ccnc(C[S+]([O-])c2nc3ccccc3[nH]2)c1C (stereo unspecified) [RABEPRAZOLE] | Not Active | Not Active | Not Active | Not Active | Not Active | Not Active | Not Active | Not Active | Not Active | Not Active | Not Active | Not Active | Not Active | Not Active | Not Active | Not Active | Not Active | – | – | –
N[C@H](CSC(=S)NCc1ccccc1)C(=O)O | Not Active | Not Active | Not Active | Not Active | Not Active | Not Active | Not Active | Not Active | Not Active | Not Active | Not Active | Not Active | Not Active | Not Active | Not Active | Not Active | Not Active | – | – | –
[H]/N=C(/N)N[C@H]1[C@H](O)[C@@H](O)[C@H](O[C@@H]2O[C@@H](C)[C@](O)(C=O)[C@H]2O[C@@H]2O[C@@H](CO)[C@H](O)[C@@H](O)[C@@H]2NC)[C@@H](N/C(N)=N\[H])[C@@H]1O [STREPTOMYCIN] | Not Active | Not Active | Not Active | Not Active | Not Active | Not Active | Not Active | Not Active | Not Active | Not Active | Not Active | Not Active | Not Active | Not Active | Not Active | Not Active | Not Active | – | – | –
CC(C)(C)c1ccc(C(O)CCCN2CCC(C(O)(c3ccccc3)c3ccccc3)CC2)cc1 (stereo unspecified) [TERFENADINE] | – | – | Not Active | Not Active | Not Active | Not Active | Not Active | Not Active | Not Active | Not Active | Not Active | Not Active | Not Active | Not Active | – | Not Active | Not Active | 226 nM | 201 nM | 3570 nM
O=C(c1ccc(OCCN2CCCCC2)cc1)c1c(-c2ccc(O)cc2)sc2cc(O)ccc12 [RALOXIFENE] | – | – | Not Active | Not Active | Not Active | Not Active | Not Active | Not Active | Not Active | Not Active | Not Active | Not Active | Not Active | Not Active | Not Active | Not Active | Not Active | – | 368 nM | –
CO[C@H]1/C=C/O[C@@]2(C)Oc3c(C)c(O)c4c(c3C2=O)C2=NC3(CCN(CC(C)C)CC3)NC2=C(NC(=O)/C(C)=C\C=C\[C@H](C)[C@H](O)[C@@H](C)[C@@H](O)[C@@H](C)[C@H](OC(C)=O)[C@@H]1C)C4=O [RIFABUTIN] | Not Active | Not Active | Not Active | Not Active | Not Active | Not Active | Not Active | Not Active | Not Active | Not Active | Not Active | Not Active | Not Active | Not Active | Not Active | Not Active | Not Active | – | – | –

Reference: ChEMBL document CHEMBL1909046, “DrugMatrix in vitro pharmacology data”
